Data published in paper PMC9218960 (ACS infectious diseases, 2020).
Positions count from the first letter of the chain named.

Key:
Assay type in all cases: cell-based
WT PfENT1 = target: T1, WT PfENT1 (Plasmodium falciparum, UniProt Q8IDM6); assay: [3H]uridine uptake inhibition by purines in PfENT1-expressing yeast
T1 sequence (Q8IDM6 1-422): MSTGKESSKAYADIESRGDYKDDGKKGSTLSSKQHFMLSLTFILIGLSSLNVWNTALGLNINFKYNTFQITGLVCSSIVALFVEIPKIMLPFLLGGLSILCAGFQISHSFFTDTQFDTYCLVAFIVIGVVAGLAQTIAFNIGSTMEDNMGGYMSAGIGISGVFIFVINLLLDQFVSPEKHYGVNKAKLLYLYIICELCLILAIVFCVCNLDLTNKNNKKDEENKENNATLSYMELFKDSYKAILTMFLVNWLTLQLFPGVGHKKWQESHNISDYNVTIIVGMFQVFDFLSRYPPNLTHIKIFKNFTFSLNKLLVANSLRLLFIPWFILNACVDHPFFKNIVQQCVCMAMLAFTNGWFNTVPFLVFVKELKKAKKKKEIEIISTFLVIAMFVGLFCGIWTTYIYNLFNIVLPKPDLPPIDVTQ

PfENT1 F36S = target: T2, PfENT1 F36S (Plasmodium falciparum, UniProt Q8IDM6, F36S); assay: [3H]uridine uptake inhibition by purines in PfENT1-SNP-expressing yeast
T2 sequence (Q8IDM6 1-422 F36S): T1 sequence (Q8IDM6 1-422) with F36S

PfENT1 F92I = target: T3, PfENT1 F92I (Plasmodium falciparum, UniProt Q8IDM6, F92I); assay: as above
T3 sequence (Q8IDM6 1-422 F92I): T1 sequence (Q8IDM6 1-422) with F92I

PfENT1 F394L = target: T4, PfENT1 F394L (Plasmodium falciparum, UniProt Q8IDM6, F394L); assay: as above
T4 sequence (Q8IDM6 1-422 F394L): T1 sequence (Q8IDM6 1-422) with F394L

PfENT1 I418M = target: T5, PfENT1 I418M (Plasmodium falciparum, UniProt Q8IDM6, I418M); assay: as above
T5 sequence (Q8IDM6 1-422 I418M): T1 sequence (Q8IDM6 1-422) with I418M

PfENT1 F36S/V129I = target: T6, PfENT1 F36S/V129I (Plasmodium falciparum, UniProt Q8IDM6, F36S/V129I); assay: as above
T6 sequence (Q8IDM6 1-422 F36S/V129I): T1 sequence (Q8IDM6 1-422) with F36S, V129I

Row | Compound | IC50 (WT PfENT1) [µM] | IC50 (PfENT1 F36S) [µM] | IC50 (PfENT1 F92I) [µM] | IC50 (PfENT1 F394L) [µM] | IC50 (PfENT1 I418M) [µM] | IC50 (PfENT1 F36S/V129I) [µM]
1 | Nc1ncnc2nc[nH]c12 [Adenine, adenine] | 475 ± 124 | 292 ± 21 | 176 ± 35 | 1500 ± 227 | 221 ± 36 | 333 ± 32
2 | O=c1[nH]cnc2nc[nH]c12 [Hypoxanthine, hypoxanthine] | 178 ± 44 | 171 ± 25 | 207 ± 34 | 837 ± 93 | 145 ± 7 | 107 ± 5
3 | OC[C@H]1O[C@@H](n2cnc3c(O)ncnc32)[C@H](O)[C@@H]1O [Inosine, inosine] | 20 ± 7 | 24 ± 7 | 51 ± 14 | 94 ± 29 | 12 ± 2 | 14 ± 2
